We go through 1 molecule from patent US10251845B2, “Fatty acid cysteamine conjugates and their use as activators of autophagy” (Catabasis Pharmaceuticals, Inc., priority 2014, dated 2019).

One data set relates to LC3-II/LC3-I. The data set is described as follows: LC3 immunoblotting in Huh-7 cells (autophagy). In kind it is cell-based. The method, then:
The test compound was first solubilized in 100% DMSO as a 50 mM solution, and then diluted 1 to 100 in FBS as a 10× stock solution of 500 μM.
Huh-7 cells were seeded in 10% FBS DMEM overnight. The cells media were replaced with drug diluted 1 to 10 in DMEM (final concentration 50 μm in 10% FBS DMEM). Four hours after the drug addition, cells were lysed in RIPA buffer. Cell lysates were analyzed by immunoblotting with anti-LC3A/B antibodies (Cell signaling 12741). Data were presented as LC3-II/LC3-I ratio compared to vehicle treated samples.
The same experimental procedure detailed in Example 11 was used, except that 2 hours after the drug addition, cells were lysed in RIPA buffer, instead of the previously described 4 hours. Cell lysates were again analyzed by immunoblotting with anti-LC3A/B antibodies (Cell Signaling Technology 12741). Data were presented as LC3-II/LC3-I ratio compared to vehicle treated samples.
This same synergy experiment was repeated in Huh-7 cells after a 4 hour treatment with compound II-2 along with a higher concentration of the individual components (250 μM each of cystamine, EPA or a combination of cystamine and EPA).
(A western blot detects proteins with antibodies after separation by electrophoresis.)

A short description of data set [1]: Plasma stability, mouse plasma. In kind it is in vitro ADME. To be noted: 5 μM, 0.5, 1 and 2 hour time points. The method, then: (§1) The in vitro stability of the test compounds was studied in human, mouse, beagle and rat plasma (plasma was purchased from Bioreclamation). Plasma was diluted to 50% with PBS (pH 7.4). Test compounds were dissolved in DMSO to a final concentration of 10 mM and then diluted to 1 mM in MeOH. Incubations were carried at a test compound concentration of 5 μM with a final DMSO concentration of 2.5%. Plasma (198 μL) was added to 96-well plate and incubated at 37° C. for 30 minutes before the addition of […] of the test compound. The resulting mixture was then incubated at 37° C. for 2 hours. At appropriate time intervals (0, 30, 60 and 120 minutes), aliquots (50 μL) were removed and reactions were terminated by adding 200 μL of acetonitrile with an internal standard. Simultaneously, plasma samples containing Benflourex or Procaine (control compound) were terminated by adding 200 μL of acetonitrile internal standard. The sample plate was centrifuged at 3500 rpm for 45 minutes at 4° C. and the supernatant was transferred to a new plate for analysis by LC/MS-MS (Agilent Model No: HPLC: 1200, MS: 6410). […] A binary gradient consisting of 0.1% formic acid in water and 0.1% formic acid in methanol was used for analyte elution.

Data set [2] can be described thus: Plasma stability, rat plasma. The data set is classed as in vitro ADME. Particulars: rat plasma, 5 μM, 0.5, 1 and 2 hour time points. As to the method: as §1
Data set [3] in a line: Oral cannulated rat PK study (portal and jugular vein). In kind it is in vivo, Sprague Dawley rats. To be noted: rat, oral; for AUC(0-t) / Cmax: Sprague Dawley. From the text:
The compounds of the invention were solubilized in a mixture of excipients consisting 40% Tween, 50% Peceol, 10% PEG400 and diluted with water to form a self-emulsifying aqueous mixture for oral administration to animals. For this study, Sprague Dawley rats that have been surgically implanted with indwelling jugular vein cannula (JVC) and portal vein cannula (PVC) were used (Agilux, Worcester, Mass.). This approach using double-cannulated rats allowed the measurement of the drug concentration that was delivered in the portal vein as well as the drug concentration that was present in the peripheral. For the PK study, serial blood collection was carried out at both the portal and jugular vein at the following time points: 10, 20, 40 min and 1, 2, 4 and 6 hours post dose. The bioanalytical portion of the PK study was carried out using an LC/MS/MS system (Agilent Model No: HPLC: 1200, MS: 6410) and analyzed with the appropriate software (WinNonlin Phoenix 64 6.3.0 395).

The next data set has as its target ΔF508 CFTR (Homo sapiens, UniProt P13569, DEL508-508). Nature of the data set: Ussing chamber short circuit current in Fisher Rat Thyroid epithelial cells overexpressing ΔF508-CFTR. The data set is classed as cell-based. On the set-up: expressed in transfected cells; host or cells: Fisher Rat Thyroid (FRT) epithelial cells, stably transfected. Particulars: FRT cells, 10 μM, 4 hours. As to the method:
The most prevalent disease causing mutation of the CF transmembrane conductance regulator (CFTR) chloride channel is the deletion of phenylalanine at position 508 in the primary sequence of CFTR (ΔF508-CFTR). This mutation causes a trafficking defect resulting in a severe reduction of ΔF508-CFTR protein at the cell surface. The trafficking defect can be corrected by incubation at low temperature (27° C. overnight) or pharmacologically by small molecules and CFTR correctors. Chloride transport function of Fisher Rat Thyroid (FRT) epithelial cells overexpressing ΔF508-CFTR in monolayers grown on Snapwell™ filter inserts will be monitored as the CFTR agonist evoked short circuit (ISC) current output of an Ussing epithelial voltage clamp apparatus. An objective of this study is to measure the ability of test compounds to restore function to defective ΔF508-CFTR in FRT epithelial cell monolayers.
Measurement of corrector efficacy is divided into two phases. The initial phase is incubation of epithelia with the test compounds for a period of time (that can range from 2 hours to one or two days) in a 37° C. incubator and the second phase is measurement of epithelial ΔF508-CFTR chloride channel current with an epithelial voltage clamp (Ussing assay). The short circuit current (ISC) is measured under short circuit conditions (0 mV transepithelial potential). The ISC magnitude is an index of corrector efficacy and is compared to vehicle and positive control.
Cryopreserved FRT cells stably transfected with ΔF508-CFTR cDNA (Pedemonte et al. (2005) J. CLIN. INVEST., 115, p. 2564-2571) were expanded and plated on Snapwell™ filters for measurement of short circuit current in an Ussing apparatus (Physiologic Instruments, Inc., Sand Diego, Calif.). Cells were grown in Coon's modification of Ham's F-12 media supplemented with zeocin and G-418.
To conduct the assay, a compound of the invention was solubilized as follows: • 1) Prepare 25 mM stock solution in 100% DMSO. • 2) Dilute 12 μL of 25 mM stock solution in 1.20 mL of FBS to make 250 μM intermediate dilution 10× stock (1% DMSO, 99% FBS). Gently vortex all solutions until the solution becomes clear. • 3) Prepare final dilution of 10 μM in 10 mL of Coon's media per well (4 wells×2 mL per well bottom+0.2 mL per insert top=8.8 mL and 1.2 mL reserve for handling losses) by addition of 400 μL of 10× stock and 600 μL of 10× carrier (1% DMSO, 99% FBS) to 9000 μL of Coon's media.
For this example, the test compound was solubilized and added to the appropriate inserts of Ussing chambers (n=4 for each test compound, final test concentration of 10 μM). A DMSO vehicle control and a positive control (VX-809 at 3 μM) were also used. For this particular example, all the test articles, including the positive control, were incubated with the cells for a period of 4 hours. The FRT cell monolayers grown on Snapwell™ filter inserts were transferred to Physiologic Instruments Ussing recording chambers (Physiologic Instruments, Inc., San Diego, Calif.) and superfused with HB-PS on the basolateral side and 78CF-PS on the apical side. One or more 6-channel or 8-channel Physiologic Instruments VCC MC6 or VCC MC8 epithelial voltage clamps were then used in combination to record the short circuit current (ISC) during the entire run. To initiate the ISC measurement, amphotericin (100 μM) was added to the basolateral side of the Snapwell™ filter insert to permeabilize the epithelial cells for 15 min. Forskolin (10 μM), IBMX (100 μM), Genistein (20 μM) and the CFTRinh-172 (20 μM) were added sequentially after the following incubation periods (15 min, 20 min, 10 min, 15 min and 15 min respectively). Data acquisition and analyses were performed using iWorx data acquisition hardware and Labscribe 2 software (iWorx, Dover, N.H.). […]

“Also recorded” adds a separate entry of the source. Where two headings read alike, the source gives them in different places.

Sequence of ΔF508 CFTR (P13569 with tags, fused parts or gaps DEL508-508): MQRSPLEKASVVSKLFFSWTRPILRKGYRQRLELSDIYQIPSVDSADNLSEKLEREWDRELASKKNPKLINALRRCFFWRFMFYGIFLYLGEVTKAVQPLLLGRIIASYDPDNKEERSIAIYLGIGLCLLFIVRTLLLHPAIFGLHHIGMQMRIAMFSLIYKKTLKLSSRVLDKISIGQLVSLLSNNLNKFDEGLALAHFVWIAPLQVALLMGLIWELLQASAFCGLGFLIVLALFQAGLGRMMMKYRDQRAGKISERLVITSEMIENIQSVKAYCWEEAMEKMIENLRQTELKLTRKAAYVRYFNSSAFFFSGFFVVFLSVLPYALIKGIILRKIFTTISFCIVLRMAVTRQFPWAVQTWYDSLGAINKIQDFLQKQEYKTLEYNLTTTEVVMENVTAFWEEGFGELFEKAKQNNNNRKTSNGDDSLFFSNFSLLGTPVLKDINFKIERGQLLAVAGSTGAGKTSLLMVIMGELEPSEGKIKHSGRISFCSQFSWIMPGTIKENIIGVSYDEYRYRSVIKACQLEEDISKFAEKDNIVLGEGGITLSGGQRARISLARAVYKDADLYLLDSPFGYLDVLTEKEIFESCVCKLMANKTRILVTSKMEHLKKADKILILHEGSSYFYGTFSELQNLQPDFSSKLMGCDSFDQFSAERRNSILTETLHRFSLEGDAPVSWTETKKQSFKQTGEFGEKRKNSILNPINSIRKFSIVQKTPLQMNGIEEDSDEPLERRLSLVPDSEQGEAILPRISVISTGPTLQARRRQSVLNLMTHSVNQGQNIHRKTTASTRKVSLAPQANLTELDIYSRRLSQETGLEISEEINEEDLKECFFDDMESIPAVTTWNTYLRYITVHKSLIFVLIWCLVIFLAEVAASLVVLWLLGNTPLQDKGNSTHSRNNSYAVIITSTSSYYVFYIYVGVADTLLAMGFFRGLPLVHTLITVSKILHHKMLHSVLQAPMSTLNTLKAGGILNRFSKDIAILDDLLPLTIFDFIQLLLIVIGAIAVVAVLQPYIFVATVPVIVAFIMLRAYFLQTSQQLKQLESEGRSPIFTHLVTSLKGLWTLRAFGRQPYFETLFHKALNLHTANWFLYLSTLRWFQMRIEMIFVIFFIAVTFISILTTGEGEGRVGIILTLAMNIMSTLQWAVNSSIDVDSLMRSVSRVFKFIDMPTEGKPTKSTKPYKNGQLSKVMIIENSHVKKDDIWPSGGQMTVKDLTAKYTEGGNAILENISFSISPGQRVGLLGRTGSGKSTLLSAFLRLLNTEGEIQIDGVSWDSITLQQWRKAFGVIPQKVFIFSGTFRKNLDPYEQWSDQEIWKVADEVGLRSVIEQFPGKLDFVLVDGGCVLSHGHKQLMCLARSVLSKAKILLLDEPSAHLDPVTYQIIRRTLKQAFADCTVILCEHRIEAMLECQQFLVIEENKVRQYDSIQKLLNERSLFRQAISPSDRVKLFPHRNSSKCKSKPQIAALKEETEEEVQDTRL

What is called Cmax is the peak of the concentration-time curve. As for `CC/C=C\C/C=C\C/C=C\C/C=C\C/C=C\CCCC(=O)NCCSSCCNC(=O)c1cccnc1` [II-2, N-(2-((2-((5Z,8Z,11Z,14Z,17Z)-icosa-5,8,11,14,17-pentaenamido)ethyl)disulfanyl)ethyl)nicotinamide], the “autophagy marker LC3-II (lower band) levels” value in the data set with LC3-II/LC3-I (Huh cells, 25 and 50 μM, 4 hours) is recorded as “increase”. In the data set on LC3-II/LC3-I (Huh-7, 50 μM, 2 hours), the “ratio of LC3-II to LC3-I compared to vehicle control” value was “two-fold increase”. Moreover, in the data set on LC3-II/LC3-I (Huh-7, 50 μM, 2 hours, compared with cystamine, EPA or their combination (50 μM each)), the “autophagy marker LC3-II (lower band)” value is recorded as “synergistic increase”. The “activation of autophagy (ratio of LC3-II to LC3-I)” value in the data set on LC3-II/LC3-I (Huh-7, 50 μM, 4 hour treatment) is “synergistic and higher degree of activation of autophagy”. Besides, in the data set with LC3-II/LC3-I (Huh-7 cells, 25 μM, 4 hours), the “ratio of LC3-II to LC3-I” value is listed as “increased”. For the same molecule, the entries for the “plasma stability (parent compound remaining)” value in data set [1] and in data set [2] were “unstable” and “unstable; also recorded: not stable”, respectively. The AUC(0-t) was determined as 0.443 ± 0.221 ng·h/mL in data set [3] (jugular vein blood (peripheral), systemic circulation (jugular vein), read-out: peripheral AUClast) and 12.5 ± 6.5 ng·h/mL in data set [3] (portal vein blood, portal vein, read-out: portal AUClast). Moreover, the Cmax in data set [3] (jugular vein blood (peripheral), systemic circulation (jugular vein), read-out: peripheral Cmax) was found to be 0.889 ± 0.33 ng/mL; in data set [3] (portal vein blood, portal vein, read-out: portal Cmax), 20.8 ± 9.45 ng/mL. Also, the “degradation of the parent compound upon oral dosing” value in data set [3] was “significant amount of the parent compound was degraded”. This molecule came in with a peripheral AUClast in data set [3] (as restated in Example 23) of 0.889 ng·h/mL. Also, the “functional rescue of CFTR (short circuit current vs vehicle)” value at ΔF508 CFTR is “able to functionally rescue CFTR function”.
